Drawing on patent US20060258561A1, “Novel NPH insulin preparations” (Novo Nordisk A/S, priority 2003, published 2006), this text covers Kd, NPH-insulin crystal size and melting point for 23 compounds.

The target of data set [1] is T1, R-state His^B10 Zn^2+ site of insulin R6 hexamers (Homo sapiens, UniProt P01308).
T1 construct: human insulin comprising additional amino acids, i.e. more than 51 amino acids
Kind of data set: TZD-assay: fluorescence displacement of 5-(4-dimethylaminobenzylidene)thiazolidine-2,4-dione from insulin R6 hexamers. The class given is binding. The method, then: However, ligands with substantially higher affinity for the His^B10 Zn^2+-site may be found and characterized by using a fluorescence based competition assay which is based on the displacement of 5-(4-dimethylaminobenzylidene)-thiazolidine-2,4-dione from the R-state His^B10 Zn^2+-site by the incoming ligand in question.
TZD-Assay for Quantitation of Ligands Binding to the R-State His^B10 Zn^2+:
The binding affinity of ligands to the metal site of insulin R6 hexamers are measured in a fluorescense based displacement assay. The fluorescence of 5-(4-dimethylaminobenzylidene)thiazolidine-2,4-dione (TZD) which is a ligand for the metal site of insulin R6 is quenched upon displacement from the metal site to the solution. Titration of a ligand to a stock solution of insulin R6 hexamers with this compound mounted in the metal site allows the binding affinity of these ligands to be determined measuring the fluorescence at 455 nm upon excitation at 410 nm.
Stock solution: 0.02 mM human insulin, 0.007 mM Zn-acetate, 40 mM phenol, 0.01 mM TZD in 50 mM tris buffer adjusted to pH=8.0 with NaOH/ClO4^−.
The ligand is dissolved in DMSO to a concentration of 5 mM and added in aliquots to the stock solution to final concentrations of 0-250 μM.
Fluorescence measurements were carried out on a Perkin Elmer Spectrofluorometer LS50B. The main absorption band was excited at 410 nm and emission was detected at 455 nm. The resolution was 10 nm and 2.5 nm for excitation and emission, respectively.
This equation is fitted to the datapoints ΔF(455 nm))=ΔFmax*[ligand]free/(KD(app)*(1+[TZD]/KTZD)+[ligand]free)) KD(app) is the apparent dissociation constant and Fmax is the fluorescence at maximal ligand concentration. The value of KTZD is measured separately to 230 nM
Two different fitting-procedures can be used. One in which both parameters, KD(app) and Fmax, are adjusted to best fit the data and a second in which the value of Fmax is fixed (Fmax=1) and only KD(app) is adjusted. The given data are from the second fitting procedure. The Solver module of Microsoft Excel can be used to generate the fits from the datapoints.

Data set [2] can be described thus: NPH-insulin crystallisation in the presence of ligand (co-crystallisation). The class given is physicochemical. Conditions: human insulin NPH crystals grown overnight with ligand equimolar to Zn2+, pH 7.3. The method, then:
Preparation of NPH-insulin in the presence of ligands for the His^B10 Zn^2+-site of the R-state insulin hexamer.
Preparations are prepared by mixing equal volumes of the following two solutions: a) 1.2 mM human insulin, 0.46 mM Zn^2+, 28 mM phosphate, 1.6% glycerol, 0.15% m-cresol, 0.065% phenol, and 0.46 mM ligand for the HisB10 Zn^2+-site (see below), optionally the ligand was added as a 9.2 mM DMSO solution, pH 7.5; and b) 0.636 mg/mL protamine sulphate 1.6% glycerol, 0.15% m-cresol, 0.065% phenol, pH 6. The NPH-crystals grow overnight from the resulting suspension, pH 7.3.

The target of data set [3] is T2, metal site of insulin R6 hexamers (Homo sapiens, UniProt P01308).
T2 construct: human insulin comprising additional amino acids, i.e. more than 51 amino acids
T2 sequence (P01308 25-54 limits assumed): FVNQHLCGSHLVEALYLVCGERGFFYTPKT
T2 sequence (P01308 90-110 limits assumed): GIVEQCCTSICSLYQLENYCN
Conditions: taken from Huang et al., 1997, Biochemistry 36, 9878-9888; read-out: K4H3N; cited from earlier work.

Where [4] appears, read: human insulin R6 hexamers, 40 mM phenol, tris pH 8.0, apparent KD, fit with Fmax fixed, read-out: Kd as observed in the 5-(4-imethylaminobenzylidene)-thiazolidine-2,4-dione assay.

Structures are written as SMILES. Where two headings read alike, the source gives them in different places. Where only a bound is given, the exact number is not on record here.

T1 sequence (P01308 25-54 limits assumed): as the sequence (P01308 25-54 limits assumed) above

As to `c1ccc(-c2ccc(Cn3ccc4cc(-c5nnn[nH]5)ccc43)cc2)cc1` [1-(4-Phenylbenzyl)-5-(1H-tetrazol-5-yl)-1H-indole], the Kd in data set [1] (setting [4]) was determined as 38 nM. In data set [2], the NPH-insulin crystal size is listed as less than 2 μ.

Consider `O=C(O)c1ccc(Cn2c3ccccc3c3cc(-c4nnn[nH]4)ccc32)cc1` [4-[3-(1H-Tetrazol-5-yl)-carbazol-9-ylmethyl]-benzoic acid], for which the Kd in data set [1] (setting [4]) was found to be 174 nM. The NPH-insulin crystal size in data set [2] is less than 2 μ.

`Cc1cc(/C=C2\SC(=O)NC2=O)c(C)c2c1[nH]c1ccccc12` [5-(1,4-Dimethyl-9H-carbazol-3-ylmethylene)-thiazolidine-2,4-dione]: in data set [1] (setting [4]), the Kd is less than 10 nM. Also, in data set [2], the NPH-insulin crystal size is on record as less than 2 μ.

Consider `Cc1[nH]c2ccccc2c1/C=C1\SC(=O)NC1=O` [5-(2-methyl-1H-indol-3-ylmethylene) thiazolidine-2,4-dione], for which the Kd in data set [1] (setting [4]) was less than 10 nM. Also, the NPH-insulin crystal size in data set [2] was 2-6 μ.

On to `O=C1NC(=O)C(Cc2cccc3ccccc23)S1` (centres unmarked) [5-Napthalen-1-ylmethyl-thiazolidine-2,4-dione], for which the Kd in data set [1] (setting [4]) was 99 nM. Moreover, the NPH-insulin crystal size in data set [2] came out at 2 μ.

For `O=C1NC(=O)/C(=C/c2cccc3ccccc23)S1` [5-Napthalen-1-ylmethylene-thiazolidine-2,4-dione], in data set [1] (setting [4]), the Kd is 21 nM. The NPH-insulin crystal size in data set [2] is listed as 4-10 μ.

For `O=C(O)c1cc2cc(Br)ccc2cc1O` [7-Bromo-3-hydroxy-2-napthoic acid], the Kd in data set [1] (setting [4]) turned out to be 264 nM. In addition, in data set [2], the NPH-insulin crystal size was 5-20 μ.

Consider `c1ccc(Cn2c3ccccc3c3cc(-c4nnn[nH]4)ccc32)cc1` [9-Benzyl-3-(1H-tetrazol-5-yl)-9H-carbazole], for which the Kd in data set [1] (setting [4]) worked out at 68 nM. For the same compound, in data set [2], the NPH-insulin crystal size was 1-3 μ.

For the compound `O=C(O)c1ccc(O)c([N+](=O)[O-])c1` [Example 4H3N, 4-hydroxy-3-nitrobenzoic acid], the Kd in data set [3] is 50000 nM.

The term melting point denotes the temperature of the solid-liquid transition. Consider `COc1cc(/C=C2\SC(=O)NC2=O)cc(I)c1O` [Example 167, 5-(4-Hydroxy-3-iodo-5-methoxybenzylidene)thiazolidine-2,4-dione], for which the melting point amounted to 256 °C.

`O=C1NC(=O)/C(=C/c2ccc3cc(O)ccc3c2)S1` [Example 171, 5-(6-Hydroxy-2-naphthylmethylene) thiazolidine-2,4-dione] came in with a melting point of 310 to 314 °C.

`O=C1NC(=O)C(=Cc2c[nH]c3ccc([N+](=O)[O-])cc23)S1` [Example 199, 5-(5-Nitro-1H-indol-3-ylmethylene)thiazolidine-2,4-dione]: the melting point is 330 to 333 °C.

Regarding `COc1cc(O)cc(OC)c1/C=C1\SC(=O)NC1=O` [Example 234, 5-(4-Hydroxy-2,6-dimethoxybenzylidene)thiazolidine-2,4-dione], the melting point was in the range of 331 to 333 °C.

As for `Cc1cccc(C)c1/C=C1\SC(=O)NC1=O` [Example 235, 5-(2,6-Dimethylbenzylidene)thiazolidine-2,4-dione], the melting point was 104 to 105 °C.

Compound `COc1cccc(OC)c1/C=C1\SC(=O)NC1=O` [Example 236, 5-(2,6-Dimethoxybenzylidene)thiazolidine-2,4-dione] showed a melting point of 241 to 242 °C.

Regarding `COc1cc(OCc2c(F)cccc2[N+](=O)[O-])cc(OC)c1/C=C1\SC(=O)NC1=O` [Example 237, 5-[4-(2-Fluoro-6-nitrobenzyloxy)-2,6-dimethoxybenzylidene]thiazolidine-2,4-dione], the melting point was in the range of 255 to 256 °C.

Take `O=C1NC(=O)/C(=C/c2cc3ccccc3o2)S1` [Example 238, 5-Benzofuran-2-ylmethylenethiazolidine-2,4-dione]: the melting point was in the range of 265 to 266 °C.

Regarding `CN(C)c1ccc(/C=C/C=C2\SC(=O)NC2=O)cc1` [Example 239, 5-[3-(4-Dimethylaminophenyl)allylidene]thiazolidine-2,4-dione], the melting point was 259 to 263 °C.

As for `CC(/C=C1\SC(=O)NC1=O)=C\c1ccccc1` [Example 240, 5-(2-Methyl-3-phenylallylidene)thiazolidine-2,4-dione], the melting point fell in the range of 203 to 210 °C.

Take `O=C1NC(=O)/C(=C/c2cc3ccccc3[nH]c2=O)S1` [Example 242, 5-(2-Oxo-1,2-dihydroquinolin-3-ylmethylene)thiazolidine-2,4-dione]: the melting point was 338 to 347 °C.

`c1cc(COc2ccc3ccccc3c2)cc(-c2nnn[nH]2)c1` [Example 572, 5-(3-(Naphthalen-2-yloxymethyl)-phenyl)-1H-tetrazole] came in with a melting point of 200 to 202 °C.

On to `CN(C)c1ccc(C=C2SC(O)=NC2=O)cc1` [TZD, 5-(4-dimethylaminobenzylidene)-thiazolidine-2,4-dione, reference compound], for which, in data set [1] (measured separately, read-out: KTZD), the Kd amounted to 230 nM.

In the case of `O=C(O)COc1ccc(/C=C2\SC(=O)NC2=O)c2ccccc12` [[4-(2,4-Dioxothiazolidin-5-ylidenemethyl)-naphthalen-1-yloxy]-acetic acid], the Kd in data set [1] (setting [4]) was 11 nM. Further, in data set [2], the NPH-insulin crystal size is listed as 2-10 μ.
